In US8445431B2, “Ligands having metal binding ability and targeting properties” (The Ohio State University, priority 2004, dated 2013):
No end group written: not given here.

Columns and labels:
RRE RNA = RRE RNA cleavage, denaturing PAGE and mass spectrometry; assay type: biochemical, HIV; settings: for RRE RNA cleavage (PAGE / mass spectrometry): in the presence of ascorbate, 1:1 with RRE RNA, 37° C., 6 hours; for t1 of RRE RNA substrate decrease: [RRE]=5 μM, complex/RRE 1:1, 37° C.
Experimental: Control reactions were carried out at the same time (FIG. 18). The reactions were quenched with a loading buffer containing 8 M Urea and 0.5 M EDTA, but without dyes. The loading buffer with dyes was run in another lane to control the electrophoresis. The reaction samples were loaded onto either 15% or 20% polyacrylamide/8M urea denaturing gels (from American Bioanalytical) and electrophoresed at 300 V for 8 h. To avoid any influence on fluorescein, the reactions and gel eletrophoresis were performed in the dark. Each experiment was carried out at least in triplicate.
RNA cleavage reactions were performed in 40 μl total volumes with 100 μM unlabeled RRE RNA, 1:1 concentration ratio of Cu-peptide complex with 1 mM ascorbate in 20 mM Hepes buffer, 100 mM NaCl, pH=7.4 at 37° C. Control reactions were carried out with RRE RNA and ascorbate. ESI/MS was used to get the mass of the cleavage products. Electrospray ionization (ESI) experiments were performed on a Micromass Q-Tof™ II (Micromass, Wythenshawe, UK) mass spectrometer equipped with an orthogonal nanospray source from New Objective, Inc. (Woburn, Mass.) operated in negative ion mode. Sodium Iodide was used for mass calibration for a calibration range of m/z 500-3000. Salt buffers from the RNA samples were removed using ZipTips (Millipore, Billerica, Mass.) following recommended manufacturer protocols. The elutants from the ZipTip were used directly and infused into the electrospray source at a rate of […]. Optimal ESI conditions were: capillary voltage 3000 V, source temperature 110° C. and a cone voltage of 60 V. Q1 was set to optimally pass ions from m/z 500-3000 and all ions transmitted into the pusher region of the TOF analyzer were scanned over m/z (your ramge) with a 1 s integration time. Data was acquired in continuum mode until acceptable averaged data was obtained (10-15 minutes). ESI data was deconvoluted using MaxEnt I provided by Micromass (FIGS. 19-21) and the cleavage sites were assigned (FIG. 22).

[1] = system: pUC19 supercoiled plasmid DNA; experiment: Plasmid DNA cleavage, agarose gel electrophoresis and quantitation; assay type: biochemical
Experimental: Plasmid pUC19 (2686 bp) was purchased from New England Biolabs Inc. The plasmid was transformed into DH5α competent cells, amplified, and pure plasmid isolated using QIAGEN protocols. Fresh plasmid DNA (over 90-95% supercoiled) was prepared before each experiment to avoid contamination by any other form of plasmid DNA. In general, DNA cleavage experiments were performed with 50 μM base pair concentration of pUC19, 25 μM Cu-peptide, and 250 μM ascorbate in 10 mM Tris buffer, pH 7.4, at 37° C. A control reaction was carried out using the same conditions as the cleavage reaction, but lacking the Cu-peptide complex. The reactions were quenched with a loading buffer containing 0.5 M EDTA.
Agarose gel electrophoresis (0.8%) containing ethidium bromide was performed under standard conditions. DNA samples were run on horizontal gels in 1×TAE buffer for 90 min at […].
Quantitation of closed circular, nicked and linear DNA was made by densitometric analysis of ethidium bromide containing agarose gels. Quantitation was performed by fluorescence imaging by use of a Gel-Doc 1000 (BioRad) and data analysis with Multianalysis software (version 1.1) provided by the manufacturer using the volume quantitation method. In all cases, background fluorescence was subtracted by reference to a lane containing no DNA. A correction factor of 1.47 was used for supercoiled DNA, since the ability of ethidium bromide to intercalate into supercoiled DNA (form I) is decreased relative to nicked (form II) and linear DNA (form III). The fraction of each form of DNA was calculated by dividing the intensity of each band by the total intensities of all the bands in the lane. All results were obtained from experiments that were performed at least in triplicate.
Consequently, the reaction was considered in terms of the standard rate law shown in equation 3. The initial rate (V0) corresponding to less than 5% conversion was considered as a function of [complex]^+ (equation 4 and 5). Rate=V=d[DNA]/dt=kobs[complex]t^m (3) • where kobs=kn, [DNA] when t=0, V0=kobs[complex]0^m (4) and ln V0=m ln[complex]0+ln kobs (5) A plot of ln V0 versus ln [[GGH-Cu]^−]0 at constant DNA concentration produced a straight line relationship (R^2=0.99) (FIG. 27A).
Investigation of DNA linearization. Following cleavage, the fraction of full length linear DNA, f(III), is related to the number, n2, of double-strand breaks per molecule given by the first term of a Poisson distribution (equation 1). f(III)=n2exp(−n2) (1) The sum of single-strand, n1, and double-strand, n2, breaks per molecule (n1+n2) was determined from the fraction f(I) of supercoiled DNA remaining after treatment with the [peptide-Cu] reagent. f(I)=exp[−(n1+n2)] […] In these studies, both n1 and n2 were calculated by use of equations (1) and (2).

HCV IRES RNA [2] = experiment: HCV IRES RNA cleavage, denaturing gel; assay type: biochemical; settings: RNA 2 μM, RNA to metal complex 1 to 10, 1 mM ascorbic acid, 37° C., 24 hours
Experimental: The cleavage of HCV IRES RNA by GGHG-(D) peptide copper complexes was studied. […] The HCV IRES RNA cleavage reactions by peptide copper complexes, free Cu^2+, or other peptide metal complexes were carried out at 37° C. in a buffer of 50 mM HEPES pH 7.0, 100 mM NaCl, 2 mM MgCl2. After reactions, 2 μL of loading buffer containing 10% glycerol, 0.05M EDTA, and 6M urea was added into each 10 μL reaction mixture and was then heated at 95° C. for 5 min before loading into 20% acrylamide, 8M urea gel with 0.5×TAE buffer and running voltage around 100 V for overnight. Before cleavage reaction, HCV IRES RNA was heated at 95° C. for 5 min and cooled to room temperature in order to fold into correct structure.
The concentration of RNA in cleavage reaction is 2 μM. The ratio of RNA to metal complexes is 1 to 10. The oxidative cleavage reaction is performed by adding ascorbic acid to a final concentration of 1 mM and a total volume of 10 μL at 37° C. for 24 hours. The result of the cleavage reaction is obtained by running a 20% denaturing polyacrylamide gel. […] No hydrolytic product has been observed from the result. […]
The time-dependence of cleavage was also examined. […] After the reaction is finished, the result of the reaction is analyzed by running 20% acrylamide gel. The cleavage effect by peptide copper complexes is analyzed by the intensity of the fluorescent image of each band by Biorad GelDoc. […]

HCV IRES RNA [3] = experiment: Binding to fluorescein-labeled HCV IRES, 96-well fluorescent reader; settings: 10 nM HCV IRES, 50 mM HEPES pH 7.0, 100 mM NaCl, 2 mM MgCl2; read-out: dissociation constant between HCV IRES and the ligand
Experimental: The binding constants for peptides to HCV IRES was determined by fluorescence methods. The sequence of the HCV IRES RNA is: […] (SEQ ID NO: 33). The sequence of the peptide recognition motif is: Y-(D)-RFK. The sequence of the metal binding peptide is: GGH. The sequence of the ligand having a metal binding domain and a recognition domain is GGHGY-(D)-RFK, where (D) indicates a (D) configuration amino acid.
A 10 nM HCV IRES with a fluoroscein label was titrated with increasing concentrations of the ligand, ranging from 5 to 1000 nM in a 50 mM HEPES pH 7.0, 100 mM NaCl, 2 mM MgCl2 to a total volume […]. The water used in this experiment was treated with DEPC at 37° C. overnight and autoclaved. HCV IRES RNA was heated at 95° C. for three minutes, and then slowly cooled to the room temperature. The binding event was determined by 96-well fluorescent reader with excitation wavelength at 494 nm and emission wavelength at 520 nm. The result data was plotted as fraction versus peptide concentration (FIG. 29) and then fitted with one site-binding model, where y is equal to API, and x is peptide concentration. y=Bx/(Kd+x)

HIV RRE RNA = experiment: Fluorescence quenching binding to 5'-fluorescein labeled RRE RNA; settings: 20 mM Hepes, 100 mM NaCl, pH 7.4, room temperature
Experimental: (§1) A 6 nM solution of 5′-fluorescein labeled RRE RNA (molecular concentration) was prepared in 20 mM Hepes buffer, 100 mM NaCl, pH=7.4. A 1 μl aliquot of 5 μM (for RRE test) or 25 μM (for TAR test) peptide or Cu-peptide complex was measured in a 300 μl quartz cuvette at room temperature using a Perkin Elmer LS50B spectrofluorimeter, with excitation (slit=6) and emission (slit=6) wavelengths set at 490 nm and 515 nm, respectively. Dissociation constants were obtained by fitting fluorescence quenching date to a one site binding equation r=Bx/(Kd+X) with binding function r (where r=(yt−y0)/(yfinal−yinitial)) versus x as peptide or Cu-peptide complex concentration (FIG. 17). The values for the dilution effect have already been subtracted from each point. Since our Cu-Rev1 complex has very little absorbance (ε515˜30 M^−1cm^−1), the inner filter effect is negligible in this assay.

HIV TAR RNA = experiment: Fluorescence quenching binding to 5' FL-labeled TAR RNA (binding specificity); settings: 20 mM Hepes, 100 mM NaCl, pH 7.4, room temperature
Experimental: as §1

[4] = system: GFP-RRE construct (RRE RNA fused downstream of GFP mRNA); assay type: cell-based, Escherichia coli; settings: 10 μM final concentration; for GFP (GFP-RRE construct) expression, fluorescence intensity/total protein (mg) of control: control without any treatment
Experimental: Escherichia coli strain BL21 (DE3) cells containing pET-21 GFP (as non-specific cleavage control) or pET-21GFP-RRE plasmid were grown to an OD600 of around 0.6, and the over-expression was induced with 0.5 mM IPTG at 37° C. incubation. The cell pellets from 500 1 culture were resuspended in resuspension buffer,^3 then lysed with sonicating. After centrifugation (14,000 rpm for 20 min), the cell lysate for each sample was transferred onto 96 well plate and the fluorescence of GFP protein was monitored by a Perkin Elmer LS50B spectrofluorimeter. Excitation and emission wavelengths were set to 390 nm and 510 nm, respectively. The amount of total protein in each cell lysate was measured with Bio-Rad protein assay.
Basically, once the RRE RNA fused downstream of the GFP mRNA is recognized and cleaved by metal-rev peptide complexes, the expression level of GFP protein will decrease accordingly, which can be monitored by the fluorescence intensity.
The expression level of GFP (GFP-RRE construct) was managed by the fluorescent emission intensity at 510 nm, with λex=390 nm. […] To correct the influence of the total number of cells lysated, the fluorescent emission intensity at 510 nm was divided by the amount of total protein for each sample.

Compound: [Cu+2] [Cu^2+(aq), reference compound]
- RRE RNA cleavage (PAGE / mass spectrometry) (RRE RNA): random cleavage
- DNA cleavage products / pattern on gel ([1]; with ascorbate): smear pattern
- HCV IRES RNA cleavage (gel) (HCV IRES RNA [2]): efficiency is significantly lower

Compound: GGHGY-(D)-RFK [the ligand]
- Kd (HCV IRES RNA [3]): 5.2 nM

Compound: GGHTRQARRNRRRRWRERQR [Rev1]
- Kd (HIV RRE RNA): ~30 nM
- Kd (HIV TAR RNA): ~5 µM
- RRE RNA cleavage (PAGE / mass spectrometry) (RRE RNA): no reaction was observed
- GFP (GFP-RRE construct) expression, fluorescence intensity/total protein (mg) of control [4]: around 40%

Compound: TRQARRNRRRRWRERQR [Rev peptide, reference compound]
- effect on GFP (GFP-RRE construct) expression [4]: No decrease

Compound: [GGH-Cu]^−: complex of peptide GGH with divalent copper (Gly-Gly-His; also: complex with divalent copper)
- time to quantitative production of nicked plasmid DNA (form II) ([1]; [DNA]=50 μM, complex 25 μM, ascorbate 250 μM): ≤ 28 min
- kobs, pseudo-first order disappearance of supercoiled DNA ([1]; [DNA]=50 μM, complex 25 μM, ascorbate 250 μM, 10 mM Tris pH 7.4, 37° C.): ~0.07 min⁻¹
- k2, second-order rate constant of DNA cleavage ([1]; from ln V0 plots, with ascorbate): ~39 M⁻¹ s⁻¹
- concentration at which DNA cleavage activity is evident ([1]; in the presence of ascorbate): 10 µM
- DNA cleavage products / pattern on gel ([1]; with ascorbate): linear DNA was not found

Compound: copper complex of Rev1 peptide GGHTRQARRNRRRRWRERQR [Cu-Rev1]
- Kd (HIV RRE RNA): ~35 nM
- Kd (HIV TAR RNA): ~5 µM
- RRE RNA cleavage in the absence of ascorbate (RRE RNA; hydrolytic condition): much slower pace
- t1 of RRE RNA substrate decrease (RRE RNA; hydrolytic condition): 6.36 h
- RRE RNA cleavage (PAGE / mass spectrometry) (RRE RNA; listed as Cu-Rev1 peptide complex): three specific cleavage sites
- RRE RNA cleavage (PAGE / mass spectrometry) (RRE RNA; listed as Cu-peptide complex): effective
- t1 of RRE RNA substrate decrease (RRE RNA; oxidative condition with ascorbate): 4.75 h
- GFP (GFP-RRE construct) expression, fluorescence intensity/total protein (mg) of control [4]: around 40%
